Laboratory results from the NIST ThermoML archive (doi:10.1021/je400056z).
± gives the expanded uncertainty stated by the source.

Assay: xn = mol fraction of the nth substance listed
Conditions: Liquid, Vibrating tube method

CCCCCCC [heptane] + O=C=O
mass density (362.09 K, 24866 kPa, x2 = 0.7514): 690.92 ± 0.51 kg/m3
mass density (362.19 K, 7007 kPa, x2 = 0.3148): 638.82 ± 0.33 kg/m3
mass density (362.19 K, 8020 kPa, x2 = 0.3148): 641.6 ± 0.34 kg/m3
mass density (362.19 K, 9013 kPa, x2 = 0.3148): 644.14 ± 0.35 kg/m3
mass density (362.19 K, 10009 kPa, x2 = 0.3148): 646.61 ± 0.36 kg/m3
mass density (362.19 K, 11005 kPa, x2 = 0.3148): 648.99 ± 0.36 kg/m3
mass density (362.19 K, 12009 kPa, x2 = 0.3148): 651.27 ± 0.37 kg/m3
mass density (362.19 K, 12998 kPa, x2 = 0.3148): 653.42 ± 0.38 kg/m3
mass density (362.19 K, 13999 kPa, x2 = 0.3148): 655.52 ± 0.39 kg/m3
mass density (362.19 K, 15011 kPa, x2 = 0.3148): 657.61 ± 0.4 kg/m3
mass density (362.19 K, 16007 kPa, x2 = 0.3148): 659.59 ± 0.4 kg/m3
mass density (362.19 K, 17005 kPa, x2 = 0.3148): 661.48 ± 0.41 kg/m3
mass density (362.19 K, 18002 kPa, x2 = 0.3148): 663.3 ± 0.42 kg/m3
mass density (362.19 K, 18999 kPa, x2 = 0.3148): 665.1 ± 0.43 kg/m3
mass density (362.19 K, 20006 kPa, x2 = 0.3148): 666.9 ± 0.44 kg/m3
mass density (362.19 K, 21004 kPa, x2 = 0.3148): 668.62 ± 0.45 kg/m3
mass density (362.19 K, 22001 kPa, x2 = 0.3148): 670.29 ± 0.45 kg/m3
mass density (362.19 K, 23006 kPa, x2 = 0.3148): 671.94 ± 0.46 kg/m3
mass density (362.19 K, 24001 kPa, x2 = 0.3148): 673.55 ± 0.47 kg/m3
mass density (362.19 K, 25007 kPa, x2 = 0.3148): 675.13 ± 0.48 kg/m3
mass density (362.25 K, 17354 kPa, x2 = 0.9496): 518.07 ± 0.81 kg/m3
mass density (362.25 K, 17995 kPa, x2 = 0.9496): 536.06 ± 0.78 kg/m3
mass density (362.25 K, 19006 kPa, x2 = 0.9496): 561.22 ± 0.74 kg/m3
mass density (362.25 K, 20005 kPa, x2 = 0.9496): 583.24 ± 0.7 kg/m3
mass density (362.25 K, 21002 kPa, x2 = 0.9496): 602.87 ± 0.67 kg/m3
mass density (362.25 K, 21997 kPa, x2 = 0.9496): 620.08 ± 0.64 kg/m3
mass density (362.25 K, 22998 kPa, x2 = 0.9496): 635.9 ± 0.62 kg/m3
mass density (362.25 K, 24005 kPa, x2 = 0.9496): 650.25 ± 0.6 kg/m3
mass density (362.25 K, 24186 kPa, x2 = 0.9496): 652.75 ± 0.6 kg/m3
mass density (362.38 K, 4014 kPa, x2 = 0.0218): 629.41 ± 0.3 kg/m3
mass density (362.38 K, 5003 kPa, x2 = 0.0218): 630.95 ± 0.31 kg/m3
mass density (362.38 K, 6009 kPa, x2 = 0.0218): 632.44 ± 0.32 kg/m3
mass density (362.38 K, 7003 kPa, x2 = 0.0218): 633.95 ± 0.32 kg/m3
mass density (362.38 K, 8010 kPa, x2 = 0.0218): 635.37 ± 0.33 kg/m3
mass density (362.38 K, 9008 kPa, x2 = 0.0218): 636.85 ± 0.34 kg/m3
mass density (362.38 K, 9009 kPa, x2 = 0.5085): 638.92 ± 0.36 kg/m3
mass density (362.38 K, 10008 kPa, x2 = 0.5085): 643.09 ± 0.37 kg/m3
mass density (362.38 K, 10010 kPa, x2 = 0.0218): 638.18 ± 0.35 kg/m3
mass density (362.38 K, 10998 kPa, x2 = 0.5085): 646.98 ± 0.37 kg/m3
mass density (362.38 K, 11002 kPa, x2 = 0.0218): 639.5 ± 0.36 kg/m3
mass density (362.38 K, 12004 kPa, x2 = 0.0218): 640.84 ± 0.37 kg/m3
mass density (362.38 K, 12009 kPa, x2 = 0.5085): 650.8 ± 0.4 kg/m3
mass density (362.38 K, 13001 kPa, x2 = 0.0218): 642.13 ± 0.38 kg/m3
mass density (362.38 K, 13001 kPa, x2 = 0.5085): 654.31 ± 0.41 kg/m3
mass density (362.38 K, 14002 kPa, x2 = 0.5085): 657.71 ± 0.41 kg/m3
mass density (362.38 K, 14009 kPa, x2 = 0.0218): 643.41 ± 0.39 kg/m3
mass density (362.38 K, 15004 kPa, x2 = 0.0218): 644.62 ± 0.4 kg/m3
mass density (362.38 K, 15013 kPa, x2 = 0.5085): 660.97 ± 0.42 kg/m3
mass density (362.38 K, 16005 kPa, x2 = 0.0218): 645.88 ± 0.41 kg/m3
mass density (362.38 K, 16008 kPa, x2 = 0.5085): 664.05 ± 0.42 kg/m3
mass density (362.38 K, 16999 kPa, x2 = 0.0218): 647.06 ± 0.42 kg/m3
mass density (362.38 K, 17005 kPa, x2 = 0.5085): 667.09 ± 0.42 kg/m3
mass density (362.38 K, 18001 kPa, x2 = 0.0218): 648.25 ± 0.43 kg/m3
mass density (362.38 K, 18005 kPa, x2 = 0.5085): 670.02 ± 0.43 kg/m3
mass density (362.38 K, 18994 kPa, x2 = 0.0218): 649.38 ± 0.44 kg/m3
mass density (362.38 K, 19006 kPa, x2 = 0.5085): 672.76 ± 0.43 kg/m3
mass density (362.38 K, 19999 kPa, x2 = 0.0218): 650.56 ± 0.45 kg/m3
mass density (362.38 K, 20009 kPa, x2 = 0.5085): 675.44 ± 0.44 kg/m3
mass density (362.38 K, 21006 kPa, x2 = 0.0218): 651.69 ± 0.46 kg/m3
mass density (362.38 K, 21006 kPa, x2 = 0.5085): 678.11 ± 0.45 kg/m3
mass density (362.38 K, 22002 kPa, x2 = 0.0218): 652.83 ± 0.47 kg/m3
mass density (362.38 K, 22010 kPa, x2 = 0.5085): 680.57 ± 0.45 kg/m3
mass density (362.38 K, 23002 kPa, x2 = 0.5085): 683.07 ± 0.46 kg/m3
mass density (362.38 K, 23003 kPa, x2 = 0.0218): 653.91 ± 0.48 kg/m3
mass density (362.38 K, 23995 kPa, x2 = 0.0218): 655.01 ± 0.49 kg/m3
mass density (362.38 K, 23997 kPa, x2 = 0.5085): 685.41 ± 0.46 kg/m3
mass density (362.38 K, 25005 kPa, x2 = 0.0218): 656.12 ± 0.5 kg/m3
mass density (362.38 K, 25008 kPa, x2 = 0.5085): 687.82 ± 0.47 kg/m3
